Measured values taken from patent US20250313563A1, “GLYCOGEN SYNTHASE KINASE 3 INHIBITORS AND USES THEREOF” (The Broad Institute, Inc., priority 2022, published 2025).
Entries after “also recorded” stand apart in the source; their conditions may differ.

What was measured:
[1] = system: β-catenin nuclear translocation in SH-SY5Y cells; assay: β-catenin translocation assay; type: cell-based; settings: HEK-huTau GSK3α vs SH-SY5Y β-catenin
Method: SH-SY5Y cells were seeded into a 96-well CellCarrier Ultra (Perkin Elmer) plate at a density of 1×10^5 cells/ml in complete DMEM. Sixteen hours following plating, media was changed to DMEM with 2% serum, and compound was added with a D300e Digital Dispenser (Tecan) for an incubation time of six hours. After compound incubation, media was removed, and cells were fixed with 4% PFA for 10 minutes at room temperature. Each well was washed three times with PBS-T and then blocked with buffer (1×PBS with 5% Normal Goat Serum and 0.3% Triton X-100) for 30 minutes at room temperature. β-Catenin primary antibody (Cell Signaling #8480) was added at 1:500 dilution in blocking buffer and the cells were allowed to incubate in primary overnight at 4° C. The following day, primary antibody was removed, each well was washed three times with PBS-T, and secondary antibody (1:2000 anti-rabbit AlexaFluor Plus 488 and 1:10,000 Hoechst 33342) was added and allowed to incubate for 60 minutes at room temperature protected from light. After one-hour, secondary antibody was removed and wells were washed four times with PBS-T before imaging on the Opera Phenix. Sixteen fields per well were imaged with a 20× water lens.
Images were quantified in the Columbus Image Data Storage and Analysis software. Cells were identified using the Hoechst nuclear stain to identify individual nuclei. Intensity of the nuclear stain was also used to determine cell viability (Viable cells <30% CV of Hoechst Intensity)

[2] = system: tau phosphorylation at pThr231; assay: Rat developmental model of tau phosphorylation; type: in vivo, Sprague Dawley rats; settings: P10 rats
Method: Sprague Dawley rats were bred in-house and litters were injected with compound, I.P. at post-natal day 10. Rats were then euthanized at indicated times following drug administration. For tissue collection, animals were euthanized via decapitation, brains were quickly removed, and bisected sagitally. The right cortex, was isolated, placed into 2 mL microtubes along with a single 5 mm stainless steel bead and the left cortex were placed into 2 mL Lysing Matrix A tubes (MP Biomedicals, Santa Ana, CA), Both tubes were immediately snap frozen in liquid nitrogen.
To determine whether a selective GSK3α inhibitor could also lower tau phosphorylation in a more physiological setting, 837646 was administered to rats at post-natal day 10. […] In the current experiment, 837646 was administered at 60, 20 and 10 mg/kg in P10 rats. The animals were sacrificed at several time points following treatment.

## CCC1(c2cccc(C(F)(F)F)c2)C2=C(Nc3n[nH]cc31)C(F)C(C)(C)CC2=O (single isomer, unassigned) [Compound 837646, 4-ethyl-8-fluoro-7,7-dimethyl-4-(3-(trifluoromethyl)phenyl)-2,4,6,7,8,9-hexahydro-5H-pyrazolo[3,4-b]quinolin-5-one]
[1]
  window between potency on tau phosphorylation by GSK3α and concentrations affecting β-catenin stabilization: > 20 fold
[2]; I.P., 20 or 60 mg/kg, 24 hr
  tau phosphorylation at pThr231 vs vehicle, 24 hr: significantly different from the vehicle group
[2]; I.P., 60, 20 and 10 mg/kg, 3 hours after administration
  tau phosphorylation at pThr231 vs vehicle, 3 hours: significant lowering of tau phosphorylation at pThr231; also recorded: reduction in tau phosphorylation at Thr231 at all doses tested
